# Columns and labels:
# [1] = target: Mast/stem cell growth factor receptor Kit (Homo sapiens, UniProt P10721); assay: Kit(KIT1MGC1) Takeda global kinase panel
# [2] = target: NUAK family SNF1-like kinase 1 (Homo sapiens, UniProt O60285); assay: NuaK1(NUA1LGF5) Takeda global kinase panel
# [3] = target: 5-hydroxytryptamine receptor 2B (Homo sapiens) (UniProt P41595); conditions: Compound concentration 10.0 uM
# [4] = target: Serine/threonine-protein kinase H1 (Homo sapiens, UniProt P11801); assay: PSKH1(PSH1LGRH) Takeda global kinase panel
# [5] = target: Serine/threonine-protein kinase RIO2 (Homo sapiens, UniProt Q9BVS4); assay: RIOK2(RIO2LGF1) Takeda global kinase panel
# [6] = target: Beta-1 adrenergic receptor (Homo sapiens) (UniProt P08588); conditions: Compound concentration 10.0 uM
# [7] = target: SRSF protein kinase 2 (Homo sapiens, UniProt P78362); assay: SRPK2(SRP2IGRL) Takeda global kinase panel
# [8] = target: Activin receptor type-1-like (Homo sapiens, UniProt P37023); assay: ALK1(ACL1LGF1) Takeda global kinase panel
# [9] = target: cAMP-dependent protein kinase catalytic subunit gamma (Homo sapiens, UniProt P22612); assay: PKAgamma(PRCGLGY1) Takeda global kinase panel
# [10] = target: Alpha-1A adrenergic receptor (Homo sapiens) (UniProt P35348); conditions: Compound concentration 10.0 uM
# [11] = target: 5-hydroxytryptamine receptor 1A (Homo sapiens) (UniProt P08908); conditions: Compound concentration 10.0 uM
# [12] = target: Dual specificity protein kinase CLK3 (Homo sapiens, UniProt P49761); assay: CLK3(CLK3LGY1) Takeda global kinase panel
# [13] = target: Glutamate receptor ionotropic, kainate (Rattus norvegicus) (UniProt P22756+Q01812+P42260+P42264+Q63273); conditions: Compound concentration 10.0 uM
# [14] = target: Insulin-like growth factor 1 receptor (Homo sapiens, UniProt P08069); assay: IGF1R(IGF1LGF1) Takeda global kinase panel
# [15] = GPCRScan assay: inhibition of GABA/PBR; design: species or system Rattus norvegicus; radioligand conc. used [nm] 0.3 – 2.0, parental cells brain tissue
# [16] = target: Dual specificity tyrosine-phosphorylation-regulated kinase 4 (Homo sapiens, UniProt Q9NR20); assay: DYRK4(DYR4LHY1) Takeda global kinase panel
# [17] = target: Ephrin type-A receptor 7 (Homo sapiens, UniProt Q15375); assay: EphA7(EPA7LGF1) Takeda global kinase panel
# [18] = target: Leukocyte tyrosine kinase receptor (Homo sapiens, UniProt P29376); assay: LTK(LTK1LGF1) Takeda global kinase panel
# [19] = target: Fibroblast growth factor receptor 4 (Homo sapiens, UniProt P22455); assay: FGFR4(FGF4LGF1) Takeda global kinase panel
# [20] = target: Casein kinase I isoform epsilon (Homo sapiens, UniProt P49674); assay: CK1epsilon(CS1ELGI5) Takeda global kinase panel
# [21] = target: Tyrosine-protein kinase FRK (Homo sapiens, UniProt P42685); assay: FRK(FRK1LGF1) Takeda global kinase panel
# [22] = target: Serine/threonine-protein kinase 32A (Homo sapiens, UniProt Q8WU08); assay: YANK1(S32APHY1) Takeda global kinase panel
# [23] = target: Activin receptor type-2A (Homo sapiens, UniProt P27037); assay: ACtR2(AC2ALGE1) Takeda global kinase panel
# [24] = target: Alpha-2A adrenergic receptor (Homo sapiens) (UniProt P08913); conditions: Compound concentration 10.0 uM
# [25] = target: Serine/threonine-protein kinase 33 (Homo sapiens, UniProt Q9BYT3); assay: STK33(ST33LGF1) Takeda global kinase panel
# [26] = target: Inhibitor of nuclear factor kappa-B kinase subunit alpha (Homo sapiens, UniProt O15111); assay: IKKalpha(CHUKLGP1) Takeda global kinase panel
# [27] = target: Serine/threonine-protein kinase PAK 4 (Homo sapiens, UniProt O96013); assay: PAK4(PAK4CGY1) Takeda global kinase panel
# [28] = target: eIF-2-alpha kinase GCN2 (Homo sapiens, UniProt Q9P2K8); assay: GCN2(EIK4PHK1) Takeda global kinase panel
# [29] = target: Tyrosine-protein kinase receptor UFO (Homo sapiens, UniProt P30530); assay: Axl(AXL1LGY1) Takeda global kinase panel
# [30] = target: Mitogen-activated protein kinase kinase kinase 7 (Homo sapiens, UniProt O43318); assay: TAK1(M3K7CHY1) Takeda global kinase panel
# [31] = target: Sodium-dependent noradrenaline transporter (Homo sapiens) (UniProt P23975); conditions: Compound concentration 10.0 uM
# [32] = target: Tyrosine-protein kinase HCK (Homo sapiens, UniProt P08631); assay: HCK(HCK1LGF1) Takeda global kinase panel
# [33] = target: Ephrin type-B receptor 2 (Homo sapiens, UniProt P29323); assay: EphB2(EPB2LGY1) Takeda global kinase panel
# [34] = target: Protein kinase C epsilon type (Homo sapiens, UniProt Q02156); assay: PKCepsilon(PRKELHY1) Takeda global kinase panel
# [35] = target: Rho-associated protein kinase 2 (Homo sapiens, UniProt O75116); assay: ROCK2(ROC2LGG1) Takeda global kinase panel
# [36] = target: Phosphatidylinositol 4,5-bisphosphate 3-kinase catalytic subunit delta isoform (Homo sapiens, UniProt O00329); assay: PI3KCD(PI3DCGRK) Takeda global kinase panel
# [37] = target: 5-hydroxytryptamine receptor 5A (Homo sapiens) (UniProt P47898); conditions: Compound concentration 10.0 uM
# [38] = target: cGMP-dependent protein kinase 2 (Homo sapiens, UniProt Q13237); assay: PKG2(PRG2LHY1) Takeda global kinase panel
# [39] = target: Testis-specific serine/threonine-protein kinase 1 (Homo sapiens, UniProt Q9BXA7); assay: TSSK1(TS1BLGP1) Takeda global kinase panel
# [40] = target: G protein-coupled receptor kinase 5 (Homo sapiens, UniProt P34947); assay: GRK5(GRK5LGP1) Takeda global kinase panel
# [41] = target: Serine/threonine-protein kinase Sgk2 (Homo sapiens, UniProt Q9HBY8); assay: SGK2(SGK2LGE5) Takeda global kinase panel
# [42] = target: 5'-AMP-activated protein kinase catalytic subunit alpha-2 (Homo sapiens, UniProt P54646); assay: AMPKalpha2(PRA2LGY1) Takeda global kinase panel
# [43] = target: Cyclin-G-associated kinase (Homo sapiens, UniProt O14976); assay: GAK(GAK1PGF1) Takeda global kinase panel
# [44] = target: Citron Rho-interacting kinase (Homo sapiens, UniProt O14578); assay: CRIK(CIT1LGY1) Takeda global kinase panel
# [45] = target: Tyrosine-protein kinase JAK3 (Homo sapiens, UniProt P52333); assay: JAK3(JAK3LGRG) Takeda global kinase panel
# [46] = target: Microtubule-associated serine/threonine-protein kinase 4 (Homo sapiens, UniProt O15021); assay: MAST4(MAS4LGRD) Takeda global kinase panel
# Chain of Serine/threonine-protein kinase H1 (P11801 whole entry): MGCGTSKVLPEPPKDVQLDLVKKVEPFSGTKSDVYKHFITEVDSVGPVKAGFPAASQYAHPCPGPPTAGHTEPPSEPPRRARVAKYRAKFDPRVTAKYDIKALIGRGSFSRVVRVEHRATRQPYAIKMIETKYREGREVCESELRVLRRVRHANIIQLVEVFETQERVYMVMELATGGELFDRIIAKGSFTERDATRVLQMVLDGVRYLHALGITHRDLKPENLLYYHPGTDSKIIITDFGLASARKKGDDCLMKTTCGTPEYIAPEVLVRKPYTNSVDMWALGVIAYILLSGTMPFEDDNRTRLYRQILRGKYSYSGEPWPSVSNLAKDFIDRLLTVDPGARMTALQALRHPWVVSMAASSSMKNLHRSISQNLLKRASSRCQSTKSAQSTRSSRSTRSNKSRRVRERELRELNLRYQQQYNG
# Chain of Rho-associated protein kinase 2 (O75116 whole entry, canonical isoform): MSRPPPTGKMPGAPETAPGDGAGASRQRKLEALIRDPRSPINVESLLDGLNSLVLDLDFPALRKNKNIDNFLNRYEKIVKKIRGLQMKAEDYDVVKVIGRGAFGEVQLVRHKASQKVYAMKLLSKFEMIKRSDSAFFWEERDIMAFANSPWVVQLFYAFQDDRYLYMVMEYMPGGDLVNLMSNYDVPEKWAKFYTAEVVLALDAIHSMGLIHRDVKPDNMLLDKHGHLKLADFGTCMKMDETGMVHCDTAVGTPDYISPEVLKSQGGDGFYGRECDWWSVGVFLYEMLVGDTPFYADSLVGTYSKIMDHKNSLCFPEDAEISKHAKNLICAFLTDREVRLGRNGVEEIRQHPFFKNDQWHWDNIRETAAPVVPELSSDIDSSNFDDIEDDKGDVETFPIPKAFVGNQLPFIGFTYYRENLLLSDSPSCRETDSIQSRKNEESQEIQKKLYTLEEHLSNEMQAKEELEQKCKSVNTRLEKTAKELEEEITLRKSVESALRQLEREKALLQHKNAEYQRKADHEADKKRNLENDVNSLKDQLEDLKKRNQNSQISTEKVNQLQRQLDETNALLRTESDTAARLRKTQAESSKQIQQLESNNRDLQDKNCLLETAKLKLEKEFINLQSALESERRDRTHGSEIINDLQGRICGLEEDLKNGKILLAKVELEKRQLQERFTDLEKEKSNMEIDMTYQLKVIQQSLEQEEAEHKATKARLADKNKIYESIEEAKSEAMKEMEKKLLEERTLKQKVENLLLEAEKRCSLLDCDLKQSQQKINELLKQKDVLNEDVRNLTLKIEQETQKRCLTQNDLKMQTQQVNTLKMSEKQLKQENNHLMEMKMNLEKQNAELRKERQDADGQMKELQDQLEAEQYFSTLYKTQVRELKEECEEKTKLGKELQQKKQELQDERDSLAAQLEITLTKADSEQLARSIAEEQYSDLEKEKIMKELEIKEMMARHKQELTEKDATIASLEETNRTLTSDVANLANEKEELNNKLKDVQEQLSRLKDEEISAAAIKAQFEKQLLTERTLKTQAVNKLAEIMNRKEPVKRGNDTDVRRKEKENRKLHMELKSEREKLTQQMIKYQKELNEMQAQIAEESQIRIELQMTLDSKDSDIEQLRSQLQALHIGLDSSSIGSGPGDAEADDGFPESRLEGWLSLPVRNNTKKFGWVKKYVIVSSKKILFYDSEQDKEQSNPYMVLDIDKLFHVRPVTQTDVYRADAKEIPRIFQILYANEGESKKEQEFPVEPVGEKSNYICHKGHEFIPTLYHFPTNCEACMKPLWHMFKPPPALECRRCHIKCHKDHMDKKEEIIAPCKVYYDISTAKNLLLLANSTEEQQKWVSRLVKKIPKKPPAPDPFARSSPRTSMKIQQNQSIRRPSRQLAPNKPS
# Chain of cAMP-dependent protein kinase catalytic subunit gamma (P22612 whole entry): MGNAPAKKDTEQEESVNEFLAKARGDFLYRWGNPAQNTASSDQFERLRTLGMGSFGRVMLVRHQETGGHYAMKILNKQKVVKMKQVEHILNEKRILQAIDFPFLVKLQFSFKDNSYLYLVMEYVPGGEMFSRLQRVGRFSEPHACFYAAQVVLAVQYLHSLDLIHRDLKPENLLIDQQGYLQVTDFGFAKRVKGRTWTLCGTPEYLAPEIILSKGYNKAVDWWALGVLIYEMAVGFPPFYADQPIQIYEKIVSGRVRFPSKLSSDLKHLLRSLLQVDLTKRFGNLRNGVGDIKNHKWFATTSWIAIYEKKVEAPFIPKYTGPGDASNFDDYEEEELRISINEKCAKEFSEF
# Chain of Mast/stem cell growth factor receptor Kit (P10721 whole entry): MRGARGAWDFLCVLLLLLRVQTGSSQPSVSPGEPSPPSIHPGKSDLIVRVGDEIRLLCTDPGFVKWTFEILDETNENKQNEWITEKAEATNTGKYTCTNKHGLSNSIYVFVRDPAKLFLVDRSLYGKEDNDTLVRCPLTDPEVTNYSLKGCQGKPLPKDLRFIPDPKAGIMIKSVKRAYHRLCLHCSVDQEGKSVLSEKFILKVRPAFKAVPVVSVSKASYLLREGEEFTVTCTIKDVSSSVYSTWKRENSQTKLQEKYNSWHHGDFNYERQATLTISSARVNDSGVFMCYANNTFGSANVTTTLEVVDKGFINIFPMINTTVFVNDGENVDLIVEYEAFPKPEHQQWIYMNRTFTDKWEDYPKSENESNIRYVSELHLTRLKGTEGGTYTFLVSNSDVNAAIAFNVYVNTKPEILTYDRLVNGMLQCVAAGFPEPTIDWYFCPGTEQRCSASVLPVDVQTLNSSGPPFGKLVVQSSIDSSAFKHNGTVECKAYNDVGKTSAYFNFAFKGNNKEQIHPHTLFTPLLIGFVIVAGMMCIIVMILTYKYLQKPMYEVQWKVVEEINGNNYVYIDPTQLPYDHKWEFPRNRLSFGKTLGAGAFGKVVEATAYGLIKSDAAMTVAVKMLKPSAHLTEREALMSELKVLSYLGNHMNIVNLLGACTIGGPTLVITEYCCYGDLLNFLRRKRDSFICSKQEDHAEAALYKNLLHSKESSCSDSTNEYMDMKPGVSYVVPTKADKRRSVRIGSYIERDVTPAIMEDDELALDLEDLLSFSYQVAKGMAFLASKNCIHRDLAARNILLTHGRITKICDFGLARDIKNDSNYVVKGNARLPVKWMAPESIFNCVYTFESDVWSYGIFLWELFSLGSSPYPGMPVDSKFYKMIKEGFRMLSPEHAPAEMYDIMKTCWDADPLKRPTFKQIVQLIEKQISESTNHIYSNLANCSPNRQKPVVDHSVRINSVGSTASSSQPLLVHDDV
# Chain of eIF-2-alpha kinase GCN2 (Q9P2K8 whole entry): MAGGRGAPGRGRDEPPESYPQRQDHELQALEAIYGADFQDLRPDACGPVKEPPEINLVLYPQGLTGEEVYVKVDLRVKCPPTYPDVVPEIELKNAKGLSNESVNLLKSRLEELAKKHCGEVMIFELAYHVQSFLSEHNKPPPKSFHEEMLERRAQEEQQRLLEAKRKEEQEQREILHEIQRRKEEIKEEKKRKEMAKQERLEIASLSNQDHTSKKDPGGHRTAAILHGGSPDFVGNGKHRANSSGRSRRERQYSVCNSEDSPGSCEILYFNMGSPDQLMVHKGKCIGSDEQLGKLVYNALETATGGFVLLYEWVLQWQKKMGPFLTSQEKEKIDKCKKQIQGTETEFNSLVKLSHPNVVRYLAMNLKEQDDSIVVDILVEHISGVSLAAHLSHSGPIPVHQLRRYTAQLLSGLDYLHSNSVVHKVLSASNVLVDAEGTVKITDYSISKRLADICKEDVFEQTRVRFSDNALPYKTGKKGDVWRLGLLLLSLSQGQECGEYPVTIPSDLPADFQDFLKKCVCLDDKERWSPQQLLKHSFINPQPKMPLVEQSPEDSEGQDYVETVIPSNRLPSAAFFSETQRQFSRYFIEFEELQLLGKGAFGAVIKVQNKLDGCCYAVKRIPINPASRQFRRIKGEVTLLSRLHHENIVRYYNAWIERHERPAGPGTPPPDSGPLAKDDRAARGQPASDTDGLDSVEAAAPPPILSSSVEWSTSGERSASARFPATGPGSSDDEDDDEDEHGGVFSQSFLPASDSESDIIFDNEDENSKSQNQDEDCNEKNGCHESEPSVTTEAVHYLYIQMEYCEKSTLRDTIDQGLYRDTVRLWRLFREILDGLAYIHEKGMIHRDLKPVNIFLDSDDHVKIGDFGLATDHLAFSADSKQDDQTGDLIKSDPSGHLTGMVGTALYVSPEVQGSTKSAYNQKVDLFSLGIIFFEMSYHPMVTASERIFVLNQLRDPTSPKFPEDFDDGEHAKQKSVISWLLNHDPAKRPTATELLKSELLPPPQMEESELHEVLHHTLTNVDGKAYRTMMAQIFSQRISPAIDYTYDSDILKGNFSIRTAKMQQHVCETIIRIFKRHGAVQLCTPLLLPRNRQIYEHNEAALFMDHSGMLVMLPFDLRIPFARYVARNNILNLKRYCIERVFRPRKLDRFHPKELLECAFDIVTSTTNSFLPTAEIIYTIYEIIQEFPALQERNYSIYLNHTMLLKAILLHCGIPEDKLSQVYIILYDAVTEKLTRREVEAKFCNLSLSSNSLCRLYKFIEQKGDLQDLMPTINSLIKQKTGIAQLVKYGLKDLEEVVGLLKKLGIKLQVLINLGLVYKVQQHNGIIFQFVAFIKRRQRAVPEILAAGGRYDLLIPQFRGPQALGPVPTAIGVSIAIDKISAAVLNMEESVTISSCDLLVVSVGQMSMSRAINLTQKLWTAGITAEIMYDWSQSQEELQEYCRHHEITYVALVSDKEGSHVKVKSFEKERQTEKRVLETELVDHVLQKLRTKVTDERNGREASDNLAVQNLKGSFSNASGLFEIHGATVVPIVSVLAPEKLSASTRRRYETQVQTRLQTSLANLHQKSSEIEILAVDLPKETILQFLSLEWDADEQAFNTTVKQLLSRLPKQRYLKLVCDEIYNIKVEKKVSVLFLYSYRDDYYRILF
compound,measurement,setting,value
CN1C(=O)[C@@H](N2CCc3c(nn(Cc4ccccc4)c3Br)C2=O)COc2ccccc21 [TP-030-2],IC50,[1],1000 nM
same,IC50,[2],1000 nM
same,inhibition,[3],63%
same,IC50,[4],1000 nM
same,IC50,[5],1000 nM
same,inhibition,[6],-4%
same,IC50,[7],1000 nM
same,IC50,[8],1000 nM
same,IC50,[9],1000 nM
same,inhibition,[10],-4.83%
same,inhibition,[11],16.9%
same,IC50,[12],1000 nM
same,inhibition,[13],5%
same,IC50,[14],1000 nM
same,Ki,[15],347 nM
same,pKi,[15],6.465
same,IC50,[16],1000 nM
same,IC50,[17],1000 nM
same,IC50,[18],1000 nM
same,IC50,[19],1000 nM
same,IC50,[20],1000 nM
same,IC50,[21],1000 nM
same,IC50,[22],1000 nM
same,IC50,[23],1000 nM
same,inhibition,[24],68%
same,IC50,[25],1000 nM
same,IC50,[26],1000 nM
same,IC50,[27],1000 nM
same,IC50,[28],1000 nM
same,IC50,[29],1000 nM
same,IC50,[30],1000 nM
same,inhibition,[31],-7.47%
same,IC50,[32],1000 nM
same,IC50,[33],1000 nM
same,IC50,[34],1000 nM
same,IC50,[35],1000 nM
same,IC50,[36],1000 nM
same,inhibition,[37],38.2%
same,IC50,[38],1000 nM
same,IC50,[39],1000 nM
same,IC50,[40],1000 nM
same,IC50,[41],1000 nM
same,IC50,[42],1000 nM
same,IC50,[43],1000 nM
same,IC50,[44],1000 nM
same,IC50,[45],1000 nM
same,IC50,[46],1000 nM
